Measurements: patent US12077503B2, “Substituted cyclic amides and their use as herbicides” (FMC CORPORATION, priority 2015, dated 2024)

Legend:
Type in all cases: in vivo
[1] = test system: velvetleaf (Abutilon theophrasti); assay: Test G Post-Emergence Protocol; details: Abutilon theophrasti, post-emergence, 312 h, read-out: Velvetleaf damage rating; for pest or weed control at 15.625 g/ha: 15.625 g ai/ha, evaluated after 13 days (100=total damage to plant; 0=no damage to plant); for pest or weed control at 62.5 g/ha: 62.5 g ai/ha; for pest or weed control at 62.5 g/ha / pest or weed control at 250 g/ha: evaluated after 13 days, 100=total damage to plant, 0=no damage to plant; for pest or weed control at 250 g/ha: 250 g ai/ha
Method in brief: (§1)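 Scores run 0 (no damage) to 100 (total damage) and were taken 13 days after spraying. Plants had been raised in pots for 8 days under glasshouse control (24/16 °C, 14 h photoperiod, 65% humidity) and then treated at 15.625, 62.5 or 250 g/ha.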

[2] = test system: barnyardgrass (Echinochloa crus-galli); assay: Test G Post-Emergence Protocol; details: Echinochloa crus-galli, post-emergence, 312 h, read-out: Barnyardgrass damage rating; for pest or weed control at 15.625 g/ha: 15.625 g ai/ha, evaluated after 13 days (100=total damage to plant; 0=no damage to plant); for pest or weed control at 62.5 g/ha: 62.5 g ai/ha; for pest or weed control at 62.5 g/ha / pest or weed control at 250 g/ha: evaluated after 13 days, 100=total damage to plant, 0=no damage to plant; for pest or weed control at 250 g/ha: 250 g ai/ha
Method in brief: as §1

[3] = test system: ivy-leaved morning glory (Ipomoea hederacea); assay: Test G Post-Emergence Protocol; details: Ipomoea, post-emergence, 312 h, read-out: Morningglory, Ivy-leaved damage rating; for pest or weed control at 15.625 g/ha: 15.625 g ai/ha, evaluated after 13 days (100=total damage to plant; 0=no damage to plant); for pest or weed control at 62.5 g/ha: 62.5 g ai/ha; for pest or weed control at 62.5 g/ha / pest or weed control at 250 g/ha: evaluated after 13 days, 100=total damage to plant, 0=no damage to plant; for pest or weed control at 250 g/ha: 250 g ai/ha
Method in brief: as §1

corn (Zea mays) [4] = assay: Test G Post-Emergence Protocol; details: Zea mays, post-emergence, 312 h, read-out: Corn damage rating; for plant injury at 15.625 g/ha: 15.625 g ai/ha, evaluated after 13 days (100=total damage to plant; 0=no damage to plant); for plant injury at 62.5 g/ha: 62.5 g ai/ha; for plant injury at 62.5 g/ha / plant injury at 250 g/ha: evaluated after 13 days, 100=total damage to plant, 0=no damage to plant; for plant injury at 250 g/ha: 250 g ai/ha
Method in brief: as §1

[5] = test system: giant foxtail (Setaria faberi); assay: Test G Post-Emergence Protocol; details: Setaria faberi, post-emergence, 312 h, read-out: Foxtail, Giant damage rating; for pest or weed control at 15.625 g/ha: 15.625 g ai/ha, evaluated after 13 days (100=total damage to plant; 0=no damage to plant); for pest or weed control at 62.5 g/ha: 62.5 g ai/ha; for pest or weed control at 62.5 g/ha / pest or weed control at 250 g/ha: evaluated after 13 days, 100=total damage to plant, 0=no damage to plant; for pest or weed control at 250 g/ha: 250 g ai/ha
Method in brief: as §1

[6] = test system: redroot pigweed (Amaranthus retroflexus); assay: Test G Post-Emergence Protocol; details: Amaranthus retroflexus, post-emergence, 312 h, read-out: Pigweed, Redroot damage rating; for pest or weed control at 15.625 g/ha: 15.625 g ai/ha, evaluated after 13 days (100=total damage to plant; 0=no damage to plant); for pest or weed control at 62.5 g/ha: 62.5 g ai/ha; for pest or weed control at 62.5 g/ha / pest or weed control at 250 g/ha: evaluated after 13 days, 100=total damage to plant, 0=no damage to plant; for pest or weed control at 250 g/ha: 250 g ai/ha
Method in brief: as §1

[7] = test system: velvetleaf (Abutilon theophrasti); assay: Test G Pre-Emergence Protocol; details: Abutilon theophrasti, pre-emergence, 312 h, evaluated after 13 days; for pest or weed control at 15.625 g/ha: 15.625 g ai/ha; for pest or weed control at 15.625 g/ha / pest or weed control at 250 g/ha: read-out: Velvetleaf damage rating (100=total damage to plant; 0=no damage to plant); for pest or weed control at 62.5 g/ha: 62.5 g ai/ha, 100=total damage to plant, 0=no damage to plant, read-out: Velvetleaf damage rating; for pest or weed control at 250 g/ha: 250 g ai/ha
Method in brief: (§2)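 Spraying took place one day after sowing, at 15.625, 62.5 or 250 g/ha, using an acetone/water (50:50) spray solution containing 0.5% Tween 20. Plants were kept under glasshouse conditions (24/16 °C, 14 h light, 65% humidity, watered twice daily), and injury was rated 0–100 at day 13.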

[8] = test system: barnyardgrass (Echinochloa crus-galli); assay: Test G Pre-Emergence Protocol; details: Echinochloa crus-galli, pre-emergence, 312 h, evaluated after 13 days; for pest or weed control at 15.625 g/ha: 15.625 g ai/ha; for pest or weed control at 15.625 g/ha / pest or weed control at 250 g/ha: read-out: Barnyardgrass damage rating (100=total damage to plant; 0=no damage to plant); for pest or weed control at 62.5 g/ha: 62.5 g ai/ha, 100=total damage to plant, 0=no damage to plant, read-out: Barnyardgrass damage rating; for pest or weed control at 250 g/ha: 250 g ai/ha
Method in brief: as §2

[9] = test system: ivy-leaved morning glory (Ipomoea hederacea); assay: Test G Pre-Emergence Protocol; details: Ipomoea, pre-emergence, 312 h, evaluated after 13 days; for pest or weed control at 15.625 g/ha: 15.625 g ai/ha; for pest or weed control at 15.625 g/ha / pest or weed control at 250 g/ha: read-out: Morningglory, Ivy-leaved damage rating (100=total damage to plant; 0=no damage to plant); for pest or weed control at 62.5 g/ha: 62.5 g ai/ha, 100=total damage to plant, 0=no damage to plant, read-out: Morningglory, Ivy-leaved damage rating; for pest or weed control at 250 g/ha: 250 g ai/ha
Method in brief: as §2

corn (Zea mays) [10] = assay: Test G Pre-Emergence Protocol; details: Zea mays, pre-emergence, 312 h, evaluated after 13 days; for plant injury at 15.625 g/ha: 15.625 g ai/ha; for plant injury at 15.625 g/ha / plant injury at 250 g/ha: read-out: Corn damage rating (100=total damage to plant; 0=no damage to plant); for plant injury at 62.5 g/ha: 62.5 g ai/ha, 100=total damage to plant, 0=no damage to plant, read-out: Corn damage rating; for plant injury at 250 g/ha: 250 g ai/ha
Method in brief: as §2

[11] = test system: giant foxtail (Setaria faberi); assay: Test G Pre-Emergence Protocol; details: Setaria faberi, pre-emergence, 312 h, evaluated after 13 days; for pest or weed control at 15.625 g/ha: 15.625 g ai/ha; for pest or weed control at 15.625 g/ha / pest or weed control at 250 g/ha: read-out: Foxtail, Giant damage rating (100=total damage to plant; 0=no damage to plant); for pest or weed control at 62.5 g/ha: 62.5 g ai/ha, 100=total damage to plant, 0=no damage to plant, read-out: Foxtail, Giant damage rating; for pest or weed control at 250 g/ha: 250 g ai/ha
Method in brief: as §2

[12] = test system: redroot pigweed (Amaranthus retroflexus); assay: Test G Pre-Emergence Protocol; details: Amaranthus retroflexus, pre-emergence, 312 h, evaluated after 13 days; for pest or weed control at 15.625 g/ha: 15.625 g ai/ha; for pest or weed control at 15.625 g/ha / pest or weed control at 250 g/ha: read-out: Pigweed, Redroot damage rating (100=total damage to plant; 0=no damage to plant); for pest or weed control at 62.5 g/ha: 62.5 g ai/ha, 100=total damage to plant, 0=no damage to plant, read-out: Pigweed, Redroot damage rating; for pest or weed control at 250 g/ha: 250 g ai/ha
Method in brief: as §2

Row | Structure (SMILES) | pest or weed control at 15.625 g/ha [1] [%] | pest or weed control at 62.5 g/ha [1] [%] | pest or weed control at 250 g/ha [1] [%] | pest or weed control at 15.625 g/ha [2] [%] | pest or weed control at 62.5 g/ha [2] [%] | pest or weed control at 250 g/ha [2] [%] | pest or weed control at 15.625 g/ha [3] [%] | pest or weed control at 62.5 g/ha [3] [%] | pest or weed control at 250 g/ha [3] [%] | plant injury at 15.625 g/ha (corn (Zea mays) [4]) [%] | plant injury at 62.5 g/ha (corn (Zea mays) [4]) [%] | plant injury at 250 g/ha (corn (Zea mays) [4]) [%] | pest or weed control at 15.625 g/ha [5] [%] | pest or weed control at 62.5 g/ha [5] [%] | pest or weed control at 250 g/ha [5] [%] | pest or weed control at 15.625 g/ha [6] [%] | pest or weed control at 62.5 g/ha [6] [%] | pest or weed control at 250 g/ha [6] [%] | pest or weed control at 15.625 g/ha [7] [%] | pest or weed control at 62.5 g/ha [7] [%] | also measured
1 | CC(C)OC(=O)c1cc([C@H]2CN(C)C(=O)[C@@H]2C(=O)Nc2ccccc2F)ccc1F (racemic) [Compound 1730] | 0 | 0 | 0 | 0 | 40 | 80 | 0 | 0 | 0 | 0 | 0 | 0 | 0 | 20 | 80 | 0 | 0 | 0 | 0 | 0 | pest or weed control at 250 g/ha [7]: 0%; pest or weed control at 15.625 g/ha [8]: 0%; pest or weed control at 62.5 g/ha [8]: 10%; pest or weed control at 250 g/ha [8]: 70%; pest or weed control at 15.625 g/ha [9]: 0%; pest or weed control at 62.5 g/ha [9]: 0%; pest or weed control at 250 g/ha [9]: 0%; plant injury at 15.625 g/ha (corn (Zea mays) [10]): 0%; plant injury at 62.5 g/ha (corn (Zea mays) [10]): 0%; plant injury at 250 g/ha (corn (Zea mays) [10]): 0%; pest or weed control at 15.625 g/ha [11]: 20%; pest or weed control at 62.5 g/ha [11]: 50%; pest or weed control at 250 g/ha [11]: 90%; pest or weed control at 15.625 g/ha [12]: 0%; pest or weed control at 62.5 g/ha [12]: 0%; pest or weed control at 250 g/ha [12]: 0%
2 | CN1C[C@H](c2ccc(C(F)(F)F)cc2)[C@@H](C(=O)Nc2cc(C#N)ccn2)C1=O (racemic) [Compound 1734] | 0 | 0 | 0 | 0 | 0 | 0 | 0 | 0 | 0 | 0 | 0 | 0 | 0 | 0 | 0 | 0 | 0 | 0 | 0 | 0 | pest or weed control at 250 g/ha [7]: 0%; pest or weed control at 15.625 g/ha [8]: 0%; pest or weed control at 62.5 g/ha [8]: 0%; pest or weed control at 250 g/ha [8]: 0%; pest or weed control at 15.625 g/ha [9]: 0%; pest or weed control at 62.5 g/ha [9]: 0%; pest or weed control at 250 g/ha [9]: 0%; plant injury at 15.625 g/ha (corn (Zea mays) [10]): 0%; plant injury at 62.5 g/ha (corn (Zea mays) [10]): 0%; plant injury at 250 g/ha (corn (Zea mays) [10]): 0%; pest or weed control at 15.625 g/ha [11]: 0%; pest or weed control at 62.5 g/ha [11]: 0%; pest or weed control at 250 g/ha [11]: 10%; pest or weed control at 15.625 g/ha [12]: 0%; pest or weed control at 62.5 g/ha [12]: 0%; pest or weed control at 250 g/ha [12]: 0%
3 | C=C(C)c1ccccc1NC(=O)[C@H]1C(=O)N(C)C[C@@H]1c1cccc(C(F)(F)F)c1 (racemic) [Compound 1736] | 0 | 0 | 0 | 0 | 30 | 70 | 0 | 0 | 40 | 0 | 0 | 70 | 30 | 80 | 80 | 0 | 0 | 0 | 0 | 10 | pest or weed control at 250 g/ha [7]: 10%; pest or weed control at 15.625 g/ha [8]: 0%; pest or weed control at 62.5 g/ha [8]: 60%; pest or weed control at 250 g/ha [8]: 90%; pest or weed control at 15.625 g/ha [9]: 0%; pest or weed control at 62.5 g/ha [9]: 0%; pest or weed control at 250 g/ha [9]: 0%; plant injury at 15.625 g/ha (corn (Zea mays) [10]): 0%; plant injury at 62.5 g/ha (corn (Zea mays) [10]): 0%; plant injury at 250 g/ha (corn (Zea mays) [10]): 60%; pest or weed control at 15.625 g/ha [11]: 80%; pest or weed control at 62.5 g/ha [11]: 90%; pest or weed control at 250 g/ha [11]: 90%; pest or weed control at 15.625 g/ha [12]: 0%; pest or weed control at 62.5 g/ha [12]: 20%; pest or weed control at 250 g/ha [12]: 10%
